Experiments:
[1] = tested on: mice; assay: Passive avoidance test, scopolamine-induced memory failure; assay type: in vivo; settings: scopolamine (1 mg/kg) group = 0%; for memory improvement / prevention activity to memory failure: passive avoidance latency, control without scopolamine and drugs = 100%, oral single administration, dose of compound not given
From the text: A shuttle box (50×15×40 cm) was used as an experimental device. The box was divided into two rooms by a guillotine door, where one of which was bright by illumination while the other was dark by black cloth, giving rise to two different illumination effects. Firstly, mice were placed into a bright room, the bright room was kept lighted and the guillotine door was kept open. The mice entered the dark room in 20 sec in accordance with their negative phototaxis and the guillotine door was kept closed upon the entrance. The latency period in which a mouse enters the dark room from the bright room was measured in a manner described above. On the first day of the test, all mice were subject to a training trial for 20-sec latency period. Next day, mice subject to the training trial were again placed in the bright room and the bright room was then kept lighted to render mice to enter the dark room. At this time, the electric shock of 0.8 mA was imposed for 3 sec by using an electric grid equipped on the bottom of the dark room to impose the electric shock on the sole of mice feet. After 24 hr of such acquisition trial, mice were again placed in the bright room and the bright room was then kept lighted to induce mice to enter the dark room. At this time, normal mice hesitated to enter the dark room due to the memory about the shock of the previous day. […] The control not subject to the administration of scopolamine and drugs was considered 100% and the group subject to the administration of scopolamine (1 mg/kg), known to result in the failure of memory through the inhibition of transmission of neurotransmitters, was considered 0%.

[2] = tested on: ICR mice; assay: in vivo; settings: oral; for results of autopsy (abnormality of organs) / disorders (general conditions): ICR mice; for results of autopsy (abnormality of organs): autopsy after 2 weeks observation, versus control group; for LD10: seven times in 1 week, male ICR mice, observed 2 weeks; for disorders (general conditions): all dosages (2.0 g/kg, 680, 230, 75 mg/kg)
From the text: (§1) Furthermore, for 2 weeks after the administration, the death rate, general conditions and body weight of mice were examined and abnormality of organs was observed via autopsy.

[3] = in vivo; settings: male, ICR, mouse, in vivo, po
From the text: as §1

## Nc1c2c(nc3ccccc13)CCCC2 [tacrine, reference compound]
[1]; positive control, oral administration 30 mg/kg, control = 100%
  prevention efficacy to memory failure: 35%

## CC1(C)CC[C@]2(C(=O)O)CC[C@]3(C)C(=CC[C@@H]4[C@@]5(C)CC[C@H](O)C(C)(C)[C@@H]5CC[C@]43C)[C@@H]2C1 [oleanolic acid]
[2]
  results of autopsy (abnormality of organs): not different from the control group
  LD10: 750 mg/kg
[3]
  LD50: ≥ 5000 mg/kg
[1]
  memory improvement / prevention activity to memory failure: 43.3%

## C[C@H]1[C@H](C)CC[C@]2(C(=O)O)CC[C@]3(C)C(=CC[C@@H]4[C@@]5(C)CC[C@H](O)C(C)(C)[C@@H]5CC[C@]43C)[C@H]12 [ursolic acid]
[2]
  disorders (general conditions): no disorders
  results of autopsy (abnormality of organs): not different from the control group
  LD10: 750 mg/kg
[3]
  LD50: ≥ 5000 mg/kg
[1]
  memory improvement / prevention activity to memory failure: 37.0%

## CC1(C)CCC2(C(=O)O)CCC3(C)C(=CCC4C5(C)CCC(O)C(C)(CO)C5CCC43C)C2C1 (stereo not drawn) [hederagenine]
[2]
  disorders (general conditions): no disorders
  results of autopsy (abnormality of organs): not different from the control group
  LD10: 750 mg/kg
[3]
  LD50: ≥ 5000 mg/kg
[1]
  memory improvement / prevention activity to memory failure: 41.1%

Source: patent publication US8790687B2, “Triterpene compounds which are effective on improvement of brain function” (priority 2003, dated 2014)
